# Laboratory results as given in patent publication EP2664619B1, “Purine derivatives as tools for screening anti-Alzheimer compounds” (Manros Therapeutics, priority 2012, dated 2013).
# Assays:
# [1] = test system: Aβ42 production; test: Sandwich ELISA measurement of Aβ42 levels in supernatant of treated N2a-APP695 cells; type: cell-based, Mouse; conditions: N2a-APP695 cells; for EC50: Mus musculus, 18h incubation, ELISA assay, read-out: EC50 (µM) at inducing Aβ42 production
# Description: Mouse neuroblastoma cells (N2a cells) or N2a-APP695 cells (N2a cell line stably transfected with APP695, an amyloid precursor protein) were cultured in an essential medium composed of Dulbecco's minimal essential medium (DMEM) and of OptiMEM® (1:1, v/v) (Gibco®) containing 0.2 mg/mL Geniticin (Geneticin® Selective Antibiotic, Gibco®) and 5 % fetal bovine serum (FBS, Gibco®, EU approved origin) in a humidified, 5% CO2 incubator at 37°C. Routinely, cells were split without use of Trypsin every 4/5 days. They were first rinsed with PBS (Gibco) and detached from the plate bottom using 4 mL Versene (Gibco) at room temperature for 3-4 min. 8 mL of fresh medium were added to the cell suspension, and the mix was centrifuged for 3 min at 1,000 rpm. The cell pellet was resuspended in fresh medium before seeding (1/10 dilution) in new flasks.
# The N2a-APP695 cells were seeded at 10.000 cells/well in a 96 well plate with modified media (0.5% FBS) and incubated overnight. Cells were treated with fresh media comprising different compounds according to the invention (equal quantity of DMSO sold by Sigma®). They were then incubated for 18h in a humidified, 5% CO2 incubator.
# Purines according to the invention were added at various concentrations to N2a-APP695.
# The plate was finally centrifuged to remove cell fragments before collecting supernatant samples for amyloids levels determination.
# Then, Aβ38, Aβ40 and Aβ42 levels were measured in a sandwich ELISA (Enzyme-Linked ImmunoSorbent Assay) using a combination of monoclonal antibody 6E10 (mAb 6E10) (sold by Covance® under the reference SIG-39320) and biotinylated polyclonal Aβ38, Aβ40 or Aβ42 antibodies (provided by Dr. P.D. Mehta, IBR, Staten Island, USA).
# A solution of 100 µl mAb 6E10 diluted in carbonate-bicarbonate buffer, pH 9.6, was coated in the wells of microtiter plates (Maxisorp™ sold by Nunc®) and incubated at 4°C overnight. The plates were then washed with PBST (PBS tablets sold by Gibco®) containing 0.05% Tween-20 (Sigma®), and blocked for 1 h with 1% BSA (Sigma®) in PBST (PBS tablets sold by Gibco®) containing 0.05 Tween-20 (Sigma®) to avoid nonspecific binding.
# Following a washing step, samples were added and incubated for 2 hours at room temperature (RT) and then at 4°C overnight. Plates were then washed before incubation with biotinylated polyclonal antibody diluted in PBST (PBS tablets sold by Gibco®) containing 0.05 Tween-20 (Sigma®) + 0.5% BSA at room temperature for 75 minutes.
# After a washing step, streptavidin-horseradish peroxidase conjugate (Streptavidin poly-HRP, Thermo Scientific Pierce®), diluted in PBS + 1% BSA, was added and incubation was carried out for 45 min at room temperature. After washing, 100 µl of o-phenylenediamine dihydrochloride (OPD tablets, Invitrogen®) diluted in citrate buffer pH 5.0 were added. The reaction was stopped after 15 min with the addition of 100 µl 1 N sulfuric acid.
# A range of known concentrations of Aβ38, Aβ40 and Aβ42, ranging from 0.01 to 10 ng/mL for Aβ38 and Aβ42, and ranging from 0.001 to 10 ng/mL for Aβ40, were use as a reference scale to determine the concentrations of Aβ38, Aβ40 and Aβ42 obtained.
# The optical density was finally measured at 490 nm in a microELISA reader (sold by BioTek Instrument, reference E1 800, Gen 5 software).
# The EC50 of the molecules tested were thus calculated.
# [2] = test system: N2a-APP695 cells; test: MTS cell viability assay in the same wells as the ELISA; conditions: MTS assay, N2a-APP695 cells; for Toxicity: class symbol; for Toxicity (concentration in brackets): concentration above which toxic
# Description: To measure cell viability, the MTS assay (CellTiter 96® AQueous One Solution Cell Proliferation Assay, Promega) was used in the same wells as the capture ELISA assay. 20µl of MTS reagent (3-(4,5-dimethylthiazol-2-yl)-5-(3-carboxymethoxyphenyl)-2-(4-sulfophenyl)-2H-tetrazolium) was added in each well containing 100µl of media and incubation was then proceeded for 3 hours (37°C, 5% CO2 and 95% humidity). Measurements were made on OD 490Δ630 nm (excitation and emission wavelengths) using a microELISA reader (BioTek Instrument, El 800, Gen 5 software).
SMILES,EC50 [1],fold (printed in the EC50 cell) ([1]; Aβ42 production),Toxicity [2],Toxicity (concentration in brackets) [2]
CC[C@H](CO)Nc1nc(OCc2ccccc2)c2ncn(C(C)C)c2n1 [Aftin-3],13 µM,,"- (""-"" means that the tested compound is non toxic with a concentration higher than 100 µM)",
"CC[C@H](CO)Nc1nc(N(C)Cc2ccccc2)c2ncn(C(C)C)c2n1 [Aftin-4, N6-methyl-roscovitine]",10 µM,,+,> 31 µM
"CN(Cc1ccccc1)c1nc(N)nc2[nH]cnc12 [Compound 1, reference compound]",100 µM,,"- (""-"" means that the tested compound is non toxic with a concentration higher than 100 µM)",
"CC[C@H](CO)Nc1nc(NCc2ccccc2)c2ncn(C(C)C)c2n1 [Compound 2, reference compound]",,,"- (""-"" means that the tested compound is non toxic with a concentration higher than 100 µM)",
"CC(C)n1cnc2c(N(C)Cc3ccccc3)ncnc21 [Compound 9, N-benzyl-9-isopropyl-N-methyl-purin-6-amine]",12 µM,,"- (""-"" means that the tested compound is non toxic with a concentration higher than 100 µM)",
CN(Cc1ccccc1)c1ncnc2c1ncn2C1CCCC1 [Compound 12],12 µM,,+,> 31 µM
CC[C@H](CO)Nc1nc(N(CC)Cc2ccccc2)c2ncn(C(C)C)c2n1 [Compound 13],3.8 µM,,+,> 31 µM
CC[C@H](CO)Nc1nc(N(C)Cc2ccc(-c3ccccn3)cc2)c2ncn(C(C)C)c2n1 [Compound 16],3.2 µM,,+,> 31 µM
CCCN(Cc1ccccc1)c1nc(N[C@H](CC)CO)nc2c1ncn2C(C)C [Compound 20],1.35 µM,,+,> 12 µM
CC[C@H](CO)Nc1nc(N(C)Cc2ccc(-c3ccccc3)cc2)c2ncn(C(C)C)c2n1 [Compound 21],0.45 µM,,+,
CCN(CC)CCNc1nc(N(CC)Cc2ccccc2)c2ncn(C3CCCC3)c2n1 [Compound 22],0.8 µM,,+,> 12 µM
CC[C@H](CO)Nc1nc(N2CCc3ccccc3C2)c2ncn(C(C)C)c2n1 [Compound 24],3.5 µM,,+,> 31 µM
CC[C@@H](CO)Nc1nc(N(C)c2ccccc2)c2ncn(C(C)C)c2n1 [Compound 26],17 µM,,"- (""-"" means that the tested compound is non toxic with a concentration higher than 100 µM)",
CC(C)n1cnc2c(N(C)Cc3ccc(-c4ccccn4)cc3)nc(NC[C@H](O)CO)nc21 [Compound 29],10 µM,,"- (""-"" means that the tested compound is non toxic with a concentration higher than 100 µM)",
CC[C@H](CO)Nc1nc(N(C)Cc2ccc(C(=O)NCCOCCOCCOCCOCCOCCN)cc2)c2ncn(C(C)C)c2n1 [Compound 30],> 100 µM,,"- (""-"" means that the tested compound is non toxic with a concentration higher than 100 µM)",
CC[C@@H](CO)Nc1nc(OCc2ccccc2)c2ncn(C(C)C)c2n1 [Compound 32],21 µM,,"- (""-"" means that the tested compound is non toxic with a concentration higher than 100 µM)",
CCC(CO)Nc1nc(N(C)c2ccc(F)cc2)c2ncn(C(C)C)c2n1 (stereo not shown) [Compound 34],30 µM,,"- (""-"" means that the tested compound is non toxic with a concentration higher than 100 µM)",
CC[C@@H](CO)Nc1nc(N(C)Cc2ccc(F)cc2)c2ncn(C(C)C)c2n1 [Compound 37],52 µM,,+,> 12 µM
CC[C@H](CO)Nc1nc(N(CC)c2ccccc2)c2ncn(C(C)C)c2n1 [Compound 42],25 µM,,+,> 100 µM
"CC(C)n1cnc2c(OCc3ccccc3)nc(OCc3ccccc3)nc21 [Compound 46, 9-Iso-propyl-2,6-dibenzyloxypurine]",3.5 µM,,+,> 12 µM
"CC[C@H](CO)Nc1nc(SCc2ccccc2)c2ncn(C(C)C)c2n1 [Compound 47, (2R)-2-[(6-benzylsulfanyl-9-isopropyl-purin-2-yl)amino]butan-1-ol]",> 10 µM,,+,

# Now from value to compound, other results behind:
EC50 [1],fold (printed in the EC50 cell) ([1]; Aβ42 production),SMILES,Toxicity [2],Toxicity (concentration in brackets) [2]
20 µM,,"CC(C)n1cnc2c(N(C)Cc3ccccc3)nc(N)nc21 [Aftin-1, N6-benzyl-9-isopropyl-N6-methyl-purine-2,6-diamine]",+,
11 µM,,"CN(Cc1ccccc1)c1nc(N)nc2c1ncn2C1CCCC1 [Aftin-2, N6-Benzyl-9-cyclopentyl-N6-methyl-purine-2,6-diamine]","- (""-"" means that the tested compound is non toxic with a concentration higher than 100 µM)",
2.7 µM,,CC[C@H](CO)Nc1nc(N(C)Cc2ccccc2)c2ncn(C3CCCC3)c2n1 [Compound 14],+,> 20 µM
0.5 µM,,CCN(Cc1ccccc1)c1nc(N[C@@H](CO)C(C)C)nc2c1ncn2C1CCCC1 [Compound 15],+,
0.7 µM,,CC[C@H](CO)Nc1nc(N(C)Cc2ccccc2)c2ncn(Cc3ccccc3)c2n1 [Compound 17],+,> 12 µM
1.3 µM,,CC[C@H](CO)Nc1nc(N(CC)Cc2ccccc2)c2ncn(Cc3ccccc3)c2n1 [Compound 18],+,> 12 µM
8 µM,,CC[C@H](CO)Nc1nc(N2CCc3ccccc32)c2ncn(C(C)C)c2n1 [Compound 19],+,> 31 µM
2.5 µM,,"CC[C@H](CO)Nc1nc(N(Cc2ccccc2)C(C)C)c2ncn(C(C)C)c2n1 [Compound 23, (2R)-2-[[6-[benzyl(isopropyl)amino]-9-isopropylpurin-2-yl]amino]butan-1-ol]",+,> 12 µM
2.8 µM,,CC[C@@H](CO)Nc1nc(N(C)Cc2ccc(-c3ccccn3)cc2)c2ncn(C(C)C)c2n1 [Compound 28],+,> 12 µM
10 µM,2 fold,CC(C)n1cnc2c(N(C)Cc3ccc(F)cc3)nc(NC3CCNCC3)nc21 [Compound 33],+,> 12 µM
105 µM,,CC[C@H](CO)Nc1nc(N(C)Cc2cccc(OC)c2)c2ncn(C(C)C)c2n1 [Compound 36],+,> 100 µM
55 µM,,CC[C@H](CO)Nc1nc(N(C)Cc2ccc(F)cc2)c2ncn(C(C)C)c2n1 [Compound 38],+,> 12 µM
> 150 µM,,CC(C)n1cnc2c(N(C)c3ccccc3)nc(N(CCO)CCO)nc21 [Compound 39],,
> 150 µM,,CC(C)n1cnc2c(N(C)c3ccccc3)nc(NCCO)nc21 [Compound 40],"- (""-"" means that the tested compound is non toxic with a concentration higher than 100 µM)",
4.5 µM,,"CC[C@H](CO)Nc1nc(N(C)c2ccc(OC)cc2)c2ncn(C(C)C)c2n1 [Compound 44, (2R)-2-[[9-isopropyl-6-[(4-methoxyphenyl)-methyl-amino]purin-2-yl]amino]butan-1-ol]",+,> 21 µM
